Patent US6365178B1, “Method of making pressure sensitive adhesive matrix patches for transdermal drug delivery using hydrophilic salts of drugs and hydrophobic pressure sensitive adhesive dispersions” (priority 1996, dated 2002)

Experiments:
[1] = Visual/microscopic observation of matrix films for drug crystals after preparation and on storage (physical stability); type: physicochemical
Experimental: As used herein, “physical stability” of a drug in a matrix patch includes the lack of recrystallization of the drug in the dried adhesive layer of the patch.
Pressure sensitive adhesive matrix systems described herein were prepared as follows. First, the solids content of a water-based or solvent-based adhesive in liquid form was determined by placing a known weight of liquid in a weighed aluminum dish and evaporating the solvents overnight in a 70° C. convection oven. The content of solid adhesive in the liquid was calculated by dividing the adhesive solid weight after drying by the initial total liquid weight. In some cases, the polyisobutylene (PIB) adhesives were prepared from polyisobutylene solids. The solid PIB was first dissolved in heptane to achieve a final solid content of about 30% by weight, and then the exact solid content was determined as described above. Next, a weighed quantity of adhesive liquid was added to a glass bottle, and the solid adhesive weight was calculated from the known solid fraction of the given adhesive liquid. The drug substance (hydrophilic salt or free drug form) was weighed and added to the adhesive solution in a quantity necessary to achieve a selected dry matrix film composition. The liquid containing the adhesive polymer drug substance was then mixed overnight. […] After mixing, approximately 8 ml of the solution was dispensed on a silanized polyester release liner and film cast using a casting knife with a gap size appropriate to achieve a final dried thickness of approximately 0.05-0.1 mm. The cast was dried in a 70° C. convection oven for 15-30 minutes to yield a dried matrix onto which an 0.08 mm thick polyethylene backing film was laminated. These matrix systems were then used to conduct in vitro skin flux experiments as described below. […]
The systems manufactured with the salt and the water-based adhesive dispersions were stored at room temperature and examined using optical microscopy at 100× magnification for the presence of drug crystals.

[2] = Dissolution of drug substance in liquid adhesive or solvent during matrix preparation; type: physicochemical
Experimental: Pressure sensitive adhesive matrix systems described herein were prepared as follows. First, the solids content of a water-based or solvent-based adhesive in liquid form was determined by placing a known weight of liquid in a weighed aluminum dish and evaporating the solvents overnight in a 70° C. convection oven. The content of solid adhesive in the liquid was calculated by dividing the adhesive solid weight after drying by the initial total liquid weight. In some cases, the polyisobutylene (PIB) adhesives were prepared from polyisobutylene solids. […] Next, a weighed quantity of adhesive liquid was added to a glass bottle, and the solid adhesive weight was calculated from the known solid fraction of the given adhesive liquid. The drug substance (hydrophilic salt or free drug form) was weighed and added to the adhesive solution in a quantity necessary to achieve a selected dry matrix film composition. The liquid containing the adhesive polymer drug substance was then mixed overnight. […] The cast was dried in a 70° C. convection oven for 15-30 minutes to yield a dried matrix onto which an 0.08 mm thick polyethylene backing film was laminated. These matrix systems were then used to conduct in vitro skin flux experiments as described below.

[3] = In vitro skin flux, modified Franz non-jacketed diffusion cells; type: in vitro ADME, human; conditions: Example 6, DURO-TAK 2852 patch, 10% ketorolac on free acid basis, 8% enhancer (propylene glycol/isopropyl myristate)
Experimental: In vitro skin flux studies were conducted using human cadaver epidermal membrane in modified Franz non-jacketed diffusion cells. […] This method involves the exposure of the fullthickness skin to water at 60° C. for 60 seconds. After this period, the epidermal membrane was gently peeled from the dermis and stored in aluminum foil at −5 ° C. Prior to skin permeation experiments, the silanized release liner was removed from the adhesive matrix system, and the adhesive was affixed to the stratum corneum side of the thawed epidermal membrane, which was then cut to an appropriate size and placed between the two halves of the diffusion cell with the stratum corneum facing the donor compartment.
The receiver compartment was filled with water or an aqueous buffer appropriate to maintain sink conditions for the drug. All receiver media included 0.02% (w/w) sodium azide to inhibit bacterial growth. The diffusion cell was placed in a temperature controlled circulating water bath calibrated to maintain the surface temperature of the skin at 32° C. The receiver compartment was constantly stirred by a magnetic stir bar in the receiver compartment agitated by a magnetic stirring module placed under the water bath. At predetermined sampling intervals, the entire contents of the receiver compartment were collected for drug quantitation, and the receiver compartment was filled with fresh receiver solution, taking care to eliminate any air bubbles at the skin/solution interface.
The cumulative amount of drug permeated per unit area at any time t (Qt, μg/cm^2) was determined according to the following equation: [formula]
where Ct (μg/cm^3) is the concentration of the receiver compartment at sample time t (hours), V is the volume of the receiver compartment of the diffusion cell (6.3 cm^3), and A is the diffusional area of the cell (0.64 cm^2).

[4] = disclosed in U.S. Pat. No. 5,589,498 (Example 2); cited from earlier work
[5] = Example 5, TSR, equivalent to 1% (w/w) tromethamine salt

With O=C(c1ccccc1)c1ccc2n1CCC2C(=O)O (centres unmarked) [Ketorolac free acid, ketorolac] the “Drug crystals in dried matrix” value [1, 5] was “visually free of any crystals”, the “Drug crystals in adhesive matrix/laminate” value ([1]; Example 6, DURO-TAK 2852 with propylene glycol/isopropyl myristate, 10% ketorolac on free acid basis, visual and microscopic) was “visibly homogeneous and free from crystals” and the “Dissolution in organic solvent system” value [2, 5] was “completely dissolved”. The “Dissolution in enhancer-acrylic adhesive solution” value ([2]; Example 6, DURO-TAK 2852 with propylene glycol/isopropyl myristate, 10% ketorolac on free acid basis) was “formed a homogeneous solution”, the “Average cumulative amount of ketorolac released after 24 hours” value [3] was 583.3±94.6 μg/cm^2 and the “In vitro skin flux of ketorolac” value ([3]; Mean±SD, n=2/10 skins/diffusion cells) was 25.4±4.2 μg/cm^2/h. The “24 hour cumulative release” value [4] was 461.7±83.8 and the Flux [4] was 21.6±3.6 μg/cm^2/h.
